Experimental data taken from patent US7713960B2, “Inhibition of the Raf/Mek/P-Erk pathway for treating cancer” (University of South Florida, priority 2005, dated 2010).
Values joined by “and” are separate entries in the source; they are usually repeats but may differ in a detail not shown here. Identical values can stand only once. Counter-ions that a name gives are not always drawn.

Experiments:
[1] = test system: ACHN cells; experiment: Anchorage-dependent growth (MTT assay), ACHN; format: cell-based, human
Description: MTT Assay—2000 cells per well were plated into 96 well tissue culture plates, and the cells were allowed to attach overnight at 37° C. with 10% CO2. Cells were then treated with increasing concentrations of ARA-211, or vehicle (DMSO) and incubated for four days. At that time treatment medium was removed and replaced with 100 μl of lmg/ml MTT (Sigma-Aldrich, St. Louis, Mo.) in media and incubated at 37° C., 10% CO2 for 3 hours. After 3 hours the MTT media was removed and replaced with 100 μl/well of DMSO, rocked at room temperature for 5 minutes, then absorbance read at 540 nm on a micro-plate reader.

[2] = test system: A-549 cells; experiment: Apoptosis assay (Cell Death Detection ELISA), A-549; format: cell-based, human; settings: 48 hours, two single values, dihydrochloride
Description: (§1) Apoptosis Assay—Apoptosis was analyzed using the Cell Death Detection ELISA (Roche, Indianapolis, Ind.) measuring cytoplasmic histone-associated mono- and oligonucleosome DNA fragments. Procedures were carried out according to the manufacturers protocol. Briefly, 1×10^5 cells were plated in 60 mm dishes and treated with various doses of ARA-211 or vehicle for 48 hours. Cells were lysed with the provided lysis buffer and lysate was incubated on the ELISA plate for 1 hour to capture the histone associated DNA indicative of apoptotic cells. Anti-DNA peroxidase conjugated antibody was added to detect the cleaved DNA and the microplate was washed and developed with ABTS substrate which was quantitated by microplate reader at 405 nm.

[3] = test system: SNB-19 cells; experiment: Apoptosis assay (Cell Death Detection ELISA), SNB-19; format: cell-based, human; settings: 48 hours, two single values
Description: as §1

[4] = test system: P-c-Raf-1; experiment: P-c-Raf-1 levels (Western blotting), MDA-MB-231; format: cell-based, human
Description: Western Blotting—Treated cell samples were lysed in 30 mM HEPES, 10 mM NaCl, 5 mM MgCl2, 25 mM NaF, 1 mM EGTA, 1% Triton-X-100, 10% Glycerol, 2 mM Sodium orthovanidate, 10 μg/mL aprotinin, 10 μg/mL soybean trypsin inhibitor, 25 μg/mL leupeptin, 2 mM phenylmethylsulfonylfluoride (PMSF), 6.4 mg/mL p-nitrophenylphosphate for 30 minutes at 4° C., and proteins run on SDS-PAGE gels then transferred to nitrocellulose membranes. Membranes were blocked in either 5% milk in PBS, pH 7.4, containing 0.1% Tween-20 (PBS-T) or 1% BSA in TBS, pH 7.5, containing 0.1% Tween-20 (TBS-T). Phospho-STAT3 and phospho-AKT antibodies were diluted in 1% BSA in TBS-T while phospho-c-Raf, phospho-Mek, and phospho-p44/p42 MAPK antibodies (Cell Signaling) were diluted in 5% milk in PBS-T for either 1 hour at room temperature or overnight at 4° C. HRP-conjugated secondary antibodies (Jackson ImmunoResearch, West Grove, Pa.) were diluted in 5% milk in PBS-T or TBS-T at a 1:1000 dilution for one hour at room temperature. Western blots results were visualized using enhanced chemiluminescence. Stripping of the membranes for reblotting was done using stripping buffer (62.5 mM Tris pH 7.6, 2% SDS, 0.7% 2-mercaptoethanol) at 50° C. for 30 minutes.

[5] = biological target: T1, Mek-1 (Homo sapiens, UniProt Q02750); experiment: In vitro kinase assay, Mek-1 immunoprecipitated from MDA-MB-231 cells; format: biochemical; settings: immunoprecipitated kinase treated in vitro, 10 μM
T1 construct: c-Raf-1 and Mek-1, immunoprecipitated from MDA-MB-231 cells; endogenous in cells; host or cells: MDA-MB-231
T1 sequence (Q02750 whole entry): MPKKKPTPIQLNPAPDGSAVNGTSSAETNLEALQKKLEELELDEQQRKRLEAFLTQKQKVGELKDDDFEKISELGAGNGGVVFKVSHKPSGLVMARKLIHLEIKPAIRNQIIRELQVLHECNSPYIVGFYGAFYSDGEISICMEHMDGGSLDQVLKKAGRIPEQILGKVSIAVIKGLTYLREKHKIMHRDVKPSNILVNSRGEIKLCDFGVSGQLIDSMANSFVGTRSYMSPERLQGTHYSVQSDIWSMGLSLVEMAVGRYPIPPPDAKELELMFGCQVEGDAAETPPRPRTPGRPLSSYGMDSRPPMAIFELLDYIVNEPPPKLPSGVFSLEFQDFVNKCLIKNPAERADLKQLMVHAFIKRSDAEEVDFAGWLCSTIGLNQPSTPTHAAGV
Description: In Vitro Kinase Assays—MDA-MB-231 cells (2×10^6) were lysed for 30 minutes at 4° C. in RIPA-150 buffer (10 mM Tris pH 7.5, 150 mM NaCl, 10% glycerol, 5 mM EDTA, 1% Triton X-100, 0.1% SDS, 100 μM sodium orthovanadate, 1 μM aprotinin, 10 μM leupeptin, 10 μM antipain). Cell debris was pelleted at 13000 rpm for 15 minutes at 4° C. and the lysate was rocked overnight with 10 μg of either c-Raf or MEK antibodies (Santa Cruz Biotechnologies, Santa Cruz, Calif.). 25 μl of protein A/G PLUS agarose (Santa Cruz Biotechnology) was then added and rocked for 4 hours at 4° C. Samples were spun at 2000 rpm for 5 minutes to collect the agarose beads, which were then washed four times with lysis buffer. On the final wash each pellet was divided into 5. […]

[6] = test system: SNB-19 cells; experiment: Nude mouse xenograft model, SNB-19 (s.c.); format: in vivo, nude mice; settings: SNB-19 xenograft; i.p. 75 mpk/day
Source text: Anti-tumor activity in nude mouse xenograft model—Female athymic nude (nu/nu) mice, 5-6 weeks old, were purchased from Charles River (Wilmington, Mass.) and allowed to acclimate in the animal facility for one week. After harvesting, A-549, SNB-19, ACHN, and HCT-116 cells were, resuspended in sterile PBS, and injected s.c. into the right and left flanks (10×10^6 cells per flank) of the mice as previously described (Sun et al., 2005). For MDA-MB-231, cells were harvested and resuspended in PBS (10×10^6 cells per 50 μl) and an equal volume of Matrigel (BD Biosciences, San Jose, Calif.). 100 μl of MDA-MB-231 cells in PBS/Matrigel were injected s.c. into the mammary fat pads between the 2nd and 3rd nipples on each side of the mice. Once the tumors reached approximately 200-300 mm^3 the mice were randomized and treated i.p. with 0.1 ml vehicle (PBS) or ARA-211. Each treatment group consisted of five mice (2 tumors per mouse, a total of 10 tumors). The tumor volumes were determined by measuring the length (l) and width (w) and calculating the volume (V=w^2l/2). Statistical significance between the control and treated animals was determined using a student's t test.

in vitro Mek-1 kinase activity [5]: did not inhibit
Structure (SMILES): CC(C)(C)NCC(O)c1ccc(O)c(CO)n1 (stereo not drawn) [ARA-211, 2-hydroxymethyl-3-hydroxy-6-(1-hydroxy-2-tert-butylaminoethyl) pyridine, dihydrochloride]
Anchorage Dependent Growth (% Inhibition) [1]: 62 ± 12.7%
Apoptosis (% Induction) [2]: 3.1% and 2.2%
Apoptosis (% Induction) [3]: 0, 0%
P-c-Raf-1 levels [4]: not
growth of tumors [6]: is not affected
